Six compounds from patent US20060035964A1, “Hypoglycemic agent, liver protecting agent and anticancer agent containing lignans originating in hongdoushan” (priority 2002, published 2006) can be followed below.

The subject of experiment [1] is murine colon 26-L5 carcinoma cells. The experiment in a line: Antiproliferative activity against cultured cancer cells (MTT), colon 26-L5. The experiment is classed as cell-based. Particulars: for IC50: Mus musculus, average of 4 wells. Here is the method: (§1) Compounds of lignans and hongdoushan fractions were tested for their antiproliferative activity against human HT-1080 fibrosarcoma cells and murine colon 26-L5 carcinoma cells. Human HT-1080 fibrosarcoma cells were cultured in the EMEM medium supplemented with 10% FCS (heat-inactivated fetal calf serum) and 0.1% sodium bicarbonate, and 2 mM glutamine. On the other hand, murine colon 26-L5 carcinoma cells were cultured in the RPMI medium containing the same supplements as in the EMEM medium. Cell viability was determined by means of MTT(3-(4,5-dimethylthiazol-2-yl)-2,5-[…] bromide).
(§2) The cells were cultured in a 96-well plate, which was supplemented with a cell suspension medium solution. In this case, each well had approximately 2,000 cells in 100 μL. The cells grew exponentially during the cultivation.
(§3) Twenty four hours later, when the cells adhered to the plate, the medium solution was removed, and then the cells were treated with a test compound medium solution (100 μL) at various concentrations (100 μg/mL, 50 μg/mL, 10 μg/mL, 5 μg/mL, and 1 μg/mL). The cells were cultured at 37° C. under 5% CO2. In this case, the test compounds were first dissolved in DMSO and then diluted in the medium. The concentration of DMSO was adjusted to be finally below 0.25%.
(§4) Next, the medium solution was removed, and the dissolved MTT (100 μL) was added to the medium. After three-hour incubation of the cells, the amount of the formazan formed was measured spectrophotometrically at 550 nm with a plate reader HTS-7000 (manufactured by Perkin Elmer).

Experiment [2] deals with human HT-1080 fibrosarcoma cells. Briefly: Antiproliferative activity against cultured cancer cells (MTT), HT-1080. Type of experiment: cell-based. The settings on record: for IC50: Homo sapiens, HT-1080, average of 4 wells. Here is the method:
as §1, §2, §3, §4

Experiment [3] is described as follows: DPPH free radical scavenging activity. Particulars: DPPH 60 μM ethanol solution, 30 minutes room temperature, absorbance 520 nm. (In general: Loss of DPPH colour is used to gauge radical scavenging.)
Procedure: 500 μL of each test compound dissolved in ethanol or aqueous solution was mixed with 500 μL of DPPH (1,1-diphenyl 1-2-picrylhydrazyl) ethanol solution (concentration: 60 μM). The mixtures were left at room temperature for 30 minutes, and then their absorbance was measured at 520 nm. The measurements were carried out for each test compound at different concentrations.
Experiment [4] relates to D-GalN/LPS-induced hepatic damage in mice. The experiment in a line: D-GalN/LPS-induced hepatic damage model. Type of experiment: in vivo, mouse. Particulars: for GOT level in blood serum / GPT level in blood serum / TNF-α level in blood serum: ddY mice, subcutaneous 10 mg/kg and 50 mg/kg; for GOT level in blood serum / GPT level in blood serum: 12 h and 1 h before D-GalN/LPS, measured 8 hours after injection; for TNF-α level in blood serum: measured 90 minutes after D-GalN/LPS injection, ELISA; for Histopathological observation of hepatic cells (apoptosis): 8 hours after the injection of D-GalN/LPS, compared with control group. Here is the method:
Evaluation by D-galactosamine (hereinafter called “D-GalN”)/Lipopolysaccharide (hereinafter called “LPS”)-induced hepatic damage model (J. Wang et al., Biochem. Pharm., 39, 267 (1990), A. Wendel et al., Biochem. Pharm., 35, 2115 (1986))
Male mice of ddY strains (age: 6 weeks) kept fast for 12 hours, and then hepatic damage was induced in the mice by injecting D-GalN (700 mg/kg)/LPS (10 μg/kg) into their abdominal cavity. Test compounds were given subcutaneously to the mice 2 times: 12 hours and 1 hour before the injection of D-GalN/LPS. They were arranged into 2 groups which were given test compounds: a group in a dose of 50 mg/kg (weight of rat), and a group in a dose of 10 mg/kg (weight of rat). There were also a control group which was given normal saline solution and a group which was given silymarin, a known hepatoprotective agent, (subcutaneous administration in a dose of 100 mg/kg) for comparison of medicinal benefits.
Tumor necrosis factor alpha (hereinafter called “TNF-α”) level in the blood was measured 90 minutes after the injection of D-GalN/LPS. Furthermore, levels of GPT (glutamic-pyruvic transaminase) and GOT (glutamic oxaloacetic transaminase) in the blood were measured 8 hours after the injection.
TNF-α level was measured by means of the ELISA method using an anti-mouse TNF-α antibody (manufactured by Endogen, Inc., USA), and levels of GPT and GOT were measured by using a Transaminase CII-Test kit (manufactured by Wako Pure Chemical Industries, Ltd.).
The hepatic damage mechanism induced in this damage model is thought to have high correlativity with clinical results as a model of immunological hepatic damage outbreak because of a series of process such as activation of cells involved in immunity, infiltration into hepatic tissues, secretion of cytokine and autocoid such as leukotriene D4 and TNF-α, and apoptosis of hepatic cells.
On the technique in general: An ELISA detects its analyte on a solid surface through an enzyme-linked reagent.

Experiment [5] has as its system primary cultured mouse hepatocytes. Briefly: Inhibitory activity on TNF-α-induced cell death in primary cultured mouse hepatocytes (MTT). The settings on record: D-galactosamine 0.5 mM + TNF-α 100 ng/mL; compounds at 200, 100, 50 and 10 μM; 18 hours; compared with Control. Type of experiment: cell-based. Here is the method: Hepatic parenchymal cells were separated from the lives of male mice of ddY strains by means of a collagenase recirculation method. The separated hepatic parenchymal cells were suspended in the William's E culture medium, which was supplemented with 10% calf blood serum, 100 IU/mL penicillin G, 100 µg/mL streptomycin, 100 μM dexamethasone, and 50 ng/mL insulin, and incubated in a 96-well plastic plate (1.5×10^4 cells/well). The culture medium was replaced with a fresh culture medium containing D-galactosamine (0.5 mM) and lignans after 2-hour pre-incubation. TNF-α (100 ng/mL) was added to each well 30 minutes later. The hepatocytes viability was assessed 18 hours later by means of MTT(3-(4,5-dimethylthiazol-2-yl)-2,5-[…] bromide) colorimetric reaction.
The vertical axis of the graph represents cell viability in percentage. The bar of Normal is cell viability in the TNF-α-untreated culture medium. The bar of Control is cell viability in the test compound-untreated culture medium.
TAX, HYL, SIL, and ITX were treated at 200 μM, 100 μM, 50 μM, and 10 μM in the culture medium. Cell viability of each item is shown in the bar graphs.

In experiment [6] the test system is diabetic rats induced by injecting STZ. The experiment in a line: Decrease activity in blood glucose level in STZ-induced diabetic rats. The experiment is classed as in vivo, rat. Particulars: STZ diabetic Wistar rats; for Reduction of blood glucose level: 10 mg/kg into abdominal cavity 5 times at 12 h intervals (positive control: tolbutamide 200 mg/kg + buformin 1 mg/kg). Here is the method: Activities of compounds of lignans and hongdoushan fractions in decreasing blood glucose level were assessed by using rats.
Blood serums were obtained after the blood cell separation of the whole blood samples collected from the rats. Measurement of the blood glucose level was carried out by using the blood serum, a Glucose CII-TEST WAKO (manufactured by Wako Pure Chemical Industries, Ltd.) as a reagent and a UV-160A (manufactured by Shimadzu Corporation) as an instrument for absorbance measurement.
Male rats of Wistar strains (age: 5-6 weeks, weight: 180-200 g) kept fast for 16 hours. Then, citrate buffer solution (pH 4.2) of streptozocin (hereinafter called “STZ”) was injected into the rats' abdominal cavity in a dose of 55 mg/kg (weight of rat). Blood samples were taken from the tail vein of the rats 5 days after the injection, to measure blood glucose level. Rats with blood glucose level higher than 250 mg/dL were considered to be diabetic and were used for the tests.
Compounds or fractions were injected into the abdominal cavity of the diabetic rats in a dose of 10 mg/kg (weight of rat) 5 times at intervals of 12 hours. Blood samples were taken from the tail veins of the rats to measure the blood glucose level. Averages and standard deviations of measured values were calculated for groups, each of which had 4 rats. The groups included a negative control group, which was given normal saline solution, and a positive control group of said diabetic rats, which were given a mixture of tolbutamide in a dose of 200 mg/kg (weight of rat) and buformin in a dose of 1 mg/kg (weight of rat) through their abdominal cavity.

Values after ≈ are worked out from the molar mass of the structure shown.

One may read the IC50 as the midpoint of a concentration-inhibition curve. Higher therefore signals a need for much substance. With `O=c1[nH]cc(F)c(=O)[nH]1` [5-Fluorouracil, reference compound], the values for the IC50 in experiment [1] and in experiment [2] were 0.07 mg/L (≈ 0.538 µM) and 0.29 mg/L (≈ 2.23 µM), respectively.

As for `O=C(O)/C=C/c1ccc(O)c(O)c1` [Caffeic Acid], in experiment [3], the “ED50 DPPH free radical scavenging” value came to 5.41 mg/L (≈ 30 µM).

On to `COc1cc([C@H]2OC[C@H]([C@@H](O)c3ccc(O)c(OC)c3)[C@@H]2CO)ccc1O` [HYL, (7′R)-7′-Hydroxylariciresinol], for which, in experiment [4], the “GOT level in blood serum” value is “inhibit the increase”, the “GPT level in blood serum” value is “inhibit the increase” and the “TNF-α level in blood serum” value is “inhibit the increase”. Moreover, the IC50 in experiment [1] is above 100 mg/L. Also, the IC50 in experiment [2] was above 100 mg/L. For the same compound, the Cell viability entry in experiment [5] is given as “results similar to that of TAX”.

Take `COc1cc2c(cc1O)[C@H](c1ccc(O)c(O)c1)[C@@H](CO)[C@H](CO)C2` [ITX, Isotaxiresinol]: in experiment [4], the “Histopathological observation of hepatic cells (apoptosis)” value was “less apoptosis corpuscles in the cells and less concentrated chromatins in the cell nucleuses”; the “GOT level in blood serum” value was “inhibit the increase”; the “GPT level in blood serum” value is “inhibit the increase”; the “TNF-α level in blood serum” value was “inhibit the increase”. Further, in experiment [1], the “Antiproliferative activity against Colon 26-L5 (in words)” value is “showed antiproliferative activity” and the concentration for half-maximal inhibition (IC50) was found to be 36.5 mg/L (≈ 105 µM). In addition, in experiment [6], the “Reduction of blood glucose level” value was 23.6%. Also, in experiment [2], the “Antiproliferative activity against HT-1080 (in words)” value is “showed antiproliferative activity” and the IC50 was determined as 43.8 mg/L (≈ 126 µM). Also, in experiment [5], the Cell viability entry was “results similar to that of TAX”.

As for `COc1cc(C[C@@H](CO)[C@H](CO)Cc2ccc(O)c(OC)c2)ccc1O` [SIL, Secoisolariciresinol], in experiment [4], the “Histopathological observation of hepatic cells (apoptosis)” value was “less apoptosis corpuscles in the cells and less concentrated chromatins in the cell nucleuses”; the “GOT level in blood serum” value was “inhibit the increase”; the “GPT level in blood serum” value is given as “inhibit the increase”; the “TNF-α level in blood serum” value is “inhibit the increase”. Also, in experiment [1], the midpoint of inhibition, the IC50, lay at 60.2 mg/L (≈ 166 µM). Further, the “Reduction of blood glucose level” value in experiment [6] came to 33.4%. Also, in experiment [2], the “Antiproliferative activity against HT-1080 (in words)” value is on record as “noticeable antiproliferative activity” and the IC50 was 5.9 mg/L (≈ 16.3 µM). The Cell viability entry in experiment [5] is listed as “results similar to that of TAX”.

For the compound `COc1cc(C[C@H]2CO[C@H](c3ccc(O)c(O)c3)[C@H]2CO)ccc1O` [TAX, Taxiresinol], in experiment [4], the “GOT level in blood serum” value is given as “inhibit the increase”, the “GPT level in blood serum” value is reported as “inhibit the increase” and the “TNF-α level in blood serum” value was “inhibit the increase”. For the same compound, in experiment [1], the “Antiproliferative activity against Colon 26-L5 (in words)” value is on record as “showed antiproliferative activity” and the IC50 was 35.2 mg/L (≈ 102 µM). Moreover, the “Reduction of blood glucose level” value in experiment [6] is 20.9%. Besides, the “Blood glucose level After administration” value in experiment [6] (after 10 mg/kg into abdominal cavity 5 times at 12 h intervals (positive control: tolbutamide 200 mg/kg + buformin 1 mg/kg), mean ± SD) was 250.2 ± 35.5 mg/dL. Besides, in experiment [6] (before administration, mean ± SD, 4 rats), the “Blood glucose level Before administration” value turned out to be 316.1 ± 19.9 mg/dL. Further, in experiment [2], the “Antiproliferative activity against HT-1080 (in words)” value is recorded as “showed antiproliferative activity” and inhibition was half-maximal at 62.2 mg/L (≈ 180 µM) (IC50). Also, the Cell viability result in experiment [5] is reported as “increased cell viability considerably in a dose-dependent manner”.
